Data from patent US20120156615A1, “CYCLIC COMPOUND, PROCESS FOR PRODUCTION OF THE CYCLIC COMPOUND, RADIATION-SENSITIVE COMPOSITION, AND METHOD FOR FORMATION OF RESIST PATTERN” (MITSUBISHI GAS CHEMICAL COMPANY, INC., priority 2009, published 2012).

Assay: Solubility of compound in safety solvent
Type: physicochemical
Settings: for solubility in CHN (dissolved amount): solvent cyclohexanone (CHN); for solubility in PGME (dissolved amount): solvent propylene glycol monomethyl ether (PGME)
Procedure: (1) Solubility of Compound in Safety Solvent
The compounds obtained in Synthesis Examples 1 to 6 and Synthesis 1 to 4 were evaluated for the solubility in propylene glycol monomethyl ether (PGME) and cyclohexanone (CHN).
A: 20.0 wt %≦dissolved amount
B: 1.0 wt %≦dissolved amount<20.0 wt %
C: dissolved amount<1.0 wt %

| SMILES | solubility in CHN (dissolved amount) | solubility in PGME (dissolved amount) |
| --- | --- | --- |
| CC(C)c1ccc(C2c3cc(c(O)cc3O)C(c3ccc(C(C)C)cc3)c3cc(c(O)cc3O)C(c3ccc(C(C)C)cc3)c3cc(c(O)cc3O)C(c3ccc(C(C)C)cc3)c3cc2c(O)cc3O)cc1 (stereo not shown) [CR-1A] | B (1.0 wt %≦dissolved amount<20.0 wt %) | B (1.0 wt %≦dissolved amount<20.0 wt %) |
| Oc1cc(O)c2cc1C(c1ccc(C3CCCCC3)cc1)c1cc(c(O)cc1O)C(c1ccc(C3CCCCC3)cc1)c1cc(c(O)cc1O)C(c1ccc(C3CCCCC3)cc1)c1cc(c(O)cc1O)C2c1ccc(C2CCCCC2)cc1 (stereo not shown) [CR-4A] | B (1.0 wt %≦dissolved amount<20.0 wt %) | B (1.0 wt %≦dissolved amount<20.0 wt %) |
